The values below come from ChEMBL document CHEMBL1201862, “PubChem BioAssay data set” (2004).

Structures are written as SMILES.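 Each compound was tested at five concentrations against cells in 96-well plates for 48 hours. GI50 is the concentration that inhibits growth by half.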 The source made the active and inactive calls. Cut-off read from the data, not from the text of the source: active = GI50 up to about 1.1 µM and inactive = higher.

Among the test systems are ACHN; CAKI-1; DU-145; HL-60; HT-29; M14; MCF7; MDA-MB-435; NCI-H522; PC-3; RXF 393; SF-295; SK-MEL-5; SK-OV-3; SN12C; SW-620; TK-10; UACC-257; Hs-578T.
Holding throughout (assay): NCI tumour cell line growth inhibition, 48 h

For `O=CC12c3ccccc3C(c3ccccc31)C1C(=O)NC(=O)C12` (stereo not given), the GI50 with ACHN is > 100 µM (inactive); with CAKI-1, 54.2 µM (inactive); in the experiment with DU-145 it was > 100 µM (inactive); in the experiment on HL-60 it was > 100 µM (inactive); in the experiment with HT-29, > 100 µM (inactive); in the experiment on M14 it was > 100 µM (inactive). Besides, the GI50 with MCF7 is 0.953 µM (active); with MDA-MB-435, > 100 µM (inactive); in the experiment on NCI-H522, 53 µM (inactive); in the experiment with PC-3 it was > 100 µM (inactive); in the experiment on RXF 393, 76.2 µM (inactive); with SF-295, > 100 µM (inactive). In addition, the GI50 was 37.2 µM (inactive) in the experiment on SK-MEL-5; > 100 µM (inactive) in the experiment with SK-OV-3; > 100 µM (inactive) in the experiment with SN12C; > 100 µM (inactive) with SW-620; > 100 µM (inactive) with TK-10; > 100 µM (inactive) in the experiment on UACC-257.
Take `CCOC(=O)Nc1ccc2c(c1)N(C(=O)CCN(CC)CC)c1ccccc1S2` [ETHACIZINE]: the GI50 with ACHN is 29.8 µM (inactive); in the experiment on CAKI-1, 36.4 µM (inactive); in the experiment on DU-145, 50.1 µM (inactive); with HL-60, 18.9 µM (inactive); with HT-29, 17.3 µM (inactive); in the experiment with Hs-578T, 50.4 µM (inactive). Moreover, the GI50 was 22.9 µM (inactive) with M14; 25.3 µM (inactive) in the experiment with MCF7; 29 µM (inactive) in the experiment on MDA-MB-435; 65.8 µM (inactive) with NCI-H522; 31.4 µM (inactive) in the experiment with PC-3; 21.6 µM (inactive) in the experiment with RXF 393. The GI50 is 22.1 µM (inactive) with SF-295; 19.2 µM (inactive) in the experiment with SK-MEL-5; 35 µM (inactive) in the experiment on SK-OV-3; 28.6 µM (inactive) in the experiment with SN12C; 25.4 µM (inactive) in the experiment on SW-620; 32.9 µM (inactive) in the experiment on TK-10. The GI50 in the experiment on UACC-257 is 16.3 µM (inactive).
With `CCOc1ccc(/C(C=O)=C(\Cl)c2ccc(OC)cc2)cc1`, the GI50 was > 100 µM (inactive) with ACHN; > 40 µM (inactive) in the experiment on CAKI-1; > 100 µM (inactive) in the experiment with DU-145; 14.6 µM (inactive) in the experiment with HL-60; > 39.4 µM (inactive) in the experiment on HT-29; 34.4 µM (inactive) with Hs-578T. Further, the GI50 was > 73.1 µM (inactive) with M14; > 100 µM (inactive) in the experiment with MCF7; 9.4 µM (inactive) with MDA-MB-435; > 27.2 µM (inactive) in the experiment on NCI-H522; > 100 µM (inactive) in the experiment on RXF 393; > 100 µM (inactive) in the experiment on SF-295. The GI50 in the experiment on SK-MEL-5 is 41.7 µM (inactive); with SK-OV-3, > 100 µM (inactive); with SN12C, > 100 µM (inactive); with SW-620, > 100 µM (inactive); in the experiment with TK-10, > 100 µM (inactive); in the experiment on UACC-257, 9.35 µM (inactive).
For the molecule `COc1ccc2nc3ccccc3c(NCCCCCCN(C)CCCl)c2c1`, the GI50 is 0.239 µM (active) in the experiment on ACHN; 0.314 µM (active) in the experiment with CAKI-1; 0.0312 µM (active) in the experiment on HL-60; 0.122 µM (active) in the experiment with HT-29; 0.834 µM (active) with M14; 0.242 µM (active) in the experiment on NCI-H522. Further, the GI50 in the experiment with RXF 393 was 0.367 µM (active); in the experiment with SF-295, 1 µM (active); with SK-MEL-5, 0.918 µM (active); in the experiment on SK-OV-3, 0.664 µM (active); in the experiment with SN12C, 0.0689 µM (active); in the experiment on SW-620 it was 0.0583 µM (active). For the same molecule, the GI50 was 1.32 µM (inactive) with TK-10 and 1.41 µM (inactive) in the experiment on UACC-257.
For the molecule `COC(=O)c1ccccc1Nc1nc(-c2cccs2)nc2cc(OC)c(OC)cc12`, the GI50 is 47.8 µM (inactive) in the experiment on ACHN; 39.4 µM (inactive) in the experiment on CAKI-1; 92.3 µM (inactive) in the experiment on DU-145; > 100 µM (inactive) in the experiment with HL-60; > 100 µM (inactive) in the experiment on HT-29; 30.3 µM (inactive) in the experiment with Hs-578T. Also, the GI50 is > 100 µM (inactive) in the experiment with M14; 72.3 µM (inactive) with MCF7; > 100 µM (inactive) in the experiment on MDA-MB-435; 59.7 µM (inactive) in the experiment on NCI-H522; 52.2 µM (inactive) with PC-3; 68.1 µM (inactive) in the experiment with RXF 393. In addition, the GI50 was 29.2 µM (inactive) with SF-295; > 100 µM (inactive) in the experiment with SK-MEL-5; 55.7 µM (inactive) in the experiment on SK-OV-3; 48.5 µM (inactive) in the experiment on SN12C; > 100 µM (inactive) in the experiment on SW-620; 28.3 µM (inactive) with TK-10. Moreover, the GI50 in the experiment with UACC-257 is 70.8 µM (inactive).
With `CC(=O)O[C@H]1[C@@H]2[C@@H]3[C@@H](C[C@H]1C)[C@@H](C)CO[C@@]1(C)CC/C=C(/C)C[C@@H]2O[C@@H]31`, the GI50 with ACHN, with CAKI-1, in the experiment with HL-60, in the experiment on HT-29, with M14 and with NCI-H522 was > 100 µM (inactive) in each case. Also, the GI50 with RXF 393, in the experiment on SF-295, in the experiment with SK-MEL-5, in the experiment with SK-OV-3, in the experiment with SN12C and in the experiment with SW-620 was > 100 µM (inactive) each time. Also, the GI50 with TK-10 and in the experiment on UACC-257 was > 100 µM (inactive) each time.
Consider `COc1ccc2c(c1)Oc1cc(O)ccc1[C@H]2c1ccccc1C(=O)NC(C)c1ccccc1` (stereo not given in full), for which the GI50 is 13.2 µM (inactive) in the experiment with ACHN; 17.3 µM (inactive) in the experiment on CAKI-1; 14.4 µM (inactive) with HL-60; 19.9 µM (inactive) in the experiment with HT-29; 13.1 µM (inactive) in the experiment on M14; 12 µM (inactive) with NCI-H522. The GI50 in the experiment on RXF 393 was 18.7 µM (inactive); in the experiment on SF-295 it was 12.4 µM (inactive); in the experiment with SK-MEL-5, 15.1 µM (inactive); in the experiment with SK-OV-3, 21 µM (inactive); in the experiment with SN12C it was 16.3 µM (inactive); in the experiment with SW-620, 17.1 µM (inactive). Besides, the GI50 with TK-10 is 24.2 µM (inactive); in the experiment on UACC-257, 17.4 µM (inactive).
As to `Cc1ccc(S(=O)(=O)NC(=O)NCCc2ccc(O)c(O)c2)cc1`, the GI50 with ACHN is > 100 µM (inactive); in the experiment with CAKI-1, > 100 µM (inactive); in the experiment with DU-145, > 100 µM (inactive); in the experiment with HL-60 it was 56.5 µM (inactive); with HT-29, > 100 µM (inactive); in the experiment with Hs-578T, > 100 µM (inactive). Also, the GI50 was > 100 µM (inactive) with M14; 61.8 µM (inactive) in the experiment with MCF7; 51.3 µM (inactive) in the experiment on MDA-MB-435; > 100 µM (inactive) in the experiment on NCI-H522; > 100 µM (inactive) in the experiment with PC-3; > 100 µM (inactive) in the experiment on RXF 393. The GI50 was > 100 µM (inactive) in the experiment on SF-295; 37.2 µM (inactive) in the experiment on SK-MEL-5; > 100 µM (inactive) with SK-OV-3; > 100 µM (inactive) in the experiment with SW-620; > 100 µM (inactive) with TK-10.
Consider `CC(=O)c1cn(-c2ccc(Cl)cc2)c(=O)c2c(N)n[nH]c12`, for which the GI50 was 25.6 µM (inactive) in the experiment with ACHN; > 100 µM (inactive) with CAKI-1; > 100 µM (inactive) in the experiment with DU-145; > 100 µM (inactive) in the experiment with HL-60; > 100 µM (inactive) in the experiment on HT-29; > 100 µM (inactive) with Hs-578T. Besides, the GI50 in the experiment on MDA-MB-435, in the experiment with PC-3, in the experiment on RXF 393, in the experiment with SF-295, with SK-MEL-5 and in the experiment with SK-OV-3 was > 100 µM (inactive) each time. The GI50 in the experiment on SW-620, in the experiment on TK-10 and in the experiment on UACC-257 was > 100 µM (inactive) throughout.
As to `Cc1cccc(NC(=O)/C(=N\N)C(c2cnc3ccc([N+](=O)[O-])cc3n2)[N+](=O)[O-])c1C` (stereo not given), the GI50 with ACHN is > 100 µM (inactive); in the experiment with CAKI-1, > 100 µM (inactive); with HL-60, > 100 µM (inactive); in the experiment with HT-29, > 100 µM (inactive); in the experiment with M14 it was > 100 µM (inactive); with NCI-H522, 40.2 µM (inactive). Further, the GI50 in the experiment with RXF 393, in the experiment with SF-295, in the experiment on SK-MEL-5, in the experiment with SK-OV-3, with SN12C and in the experiment on SW-620 was > 100 µM (inactive) each time. Also, the GI50 in the experiment with TK-10 and in the experiment with UACC-257 was > 100 µM (inactive) each time.
For the molecule `O=C1NC(Cc2ccc(O)cc2)C(=O)N2CCCC12` (stereo not given), the GI50 in the experiment with ACHN, in the experiment with CAKI-1, with HL-60, in the experiment with HT-29, with M14 and in the experiment on NCI-H522 was > 100 µM (inactive) in each case. The GI50 in the experiment with RXF 393, with SF-295, in the experiment on SK-MEL-5, with SK-OV-3, with SN12C and with SW-620 was > 100 µM (inactive) throughout. For the same molecule, the GI50 with TK-10 and in the experiment on UACC-257 was > 100 µM (inactive) throughout.
Turning to `CCCCCCCCC[C@@H]1CC(=O)OCC2OC(O[C@H](CCCCCCCCC)CC(=O)OCC3OC(O[C@H](CCCCCCCCC)CC(=O)OCC4OC(O1)C(O)C(O)C4O)C(O)C(O)C3O)C(O)C(O)C2O` (stereo not given in full), the GI50 with ACHN is 13.2 µM (inactive); in the experiment on CAKI-1 it was 3.21 µM (inactive); in the experiment with HL-60, 14.3 µM (inactive); with HT-29, 11.9 µM (inactive); in the experiment on M14 it was 4.97 µM (inactive); in the experiment on NCI-H522, 8.73 µM (inactive). The GI50 with RXF 393 was 17 µM (inactive); in the experiment with SF-295, 14.1 µM (inactive); in the experiment on SK-MEL-5, 12.5 µM (inactive); with SK-OV-3, 13.4 µM (inactive); in the experiment with SN12C, 13.7 µM (inactive); in the experiment on SW-620, 5.83 µM (inactive). Further, the figures for the GI50 in the experiment on TK-10 and in the experiment with UACC-257 were 8.15 µM (inactive) and 10.8 µM (inactive), respectively.
